According to patent US20240398817A1, “CARDIO- AND RENOSAFE ANTIDIABETIC THERAPY” (priority 2018, published 2024):

Tested on: patients with type 2 diabetes at high vascular risk
Test: Cardiovascular and Renal Outcomes Trial: linagliptin 5 mg once daily vs placebo on top of standard of care
Format: in vivo
Conditions: for Hazard ratio for hospitalised heart failure: vs placebo
Protocol: The effect of linagliptin on cardiovascular risk in adult patients with type 2 diabetes mellitus and with increased CV risk evidenced by a history of established macrovascular or renal disease (e.g. as defined herein) was evaluated in a multi-center, multi-national, randomized, double-blind parallel group trial. The trial compared the risk of experiencing a major adverse cardiovascular event (MACE) between linagliptin and placebo when these were added to and used concomitantly with standard of care treatments for diabetes (HbA1c), cardiovascular risk factors and renal disease.
The primary endpoint in this trial was the time to first occurrence of three point (3P) MACE. A major adverse cardiac event was defined as a cardiovascular death or a nonfatal myocardial infarction (MI) or a nonfatal stroke. The statistical analysis plan tested for non-inferiority for the occurrence of (3P) MACE. […] The secondary endpoint was a renal composite, defined as renal death or sustained end stage renal disease or sustained decrease of 40% or more in eGFR.
Type 2 diabetes patient with insufficient glycemic control (naïve or pre-treated with any antidiabetic background medication, excluding treatment with GLP-1 receptor agonists, DPP-4inhibitors or SGLT-2 inhibitors if ≥consecutive 7 days, e.g. having HbA1c 6.5-10%), and high risk of cardiovascular events, e.g. defined by: • albuminuria (micro or macro) and previous macrovascular disease: e.g. defined according to Condition I as indicated below; • and/or • impaired renal function: e.g. as defined according to Condition II as indicated below;
Background and aims: People with type 2 diabetes (T2D) are at increased risk for hospitalization for heart failure (hHF), particularly in the setting of concomitant cardiovascular (CV) and/or kidney disease. […] Here we present analyses of HF outcomes with the DPP-4 inhibitor linagliptin (LINA) vs. placebo (PBO) from a Cardiovascular and Renal Outcomes Trial assessing cardiovascular safety and renal microvascular outcome in patients with type 2 diabetes at high vascular risk, a large CV outcomes trial that enrolled participants with T2D at high risk for hHF due to concomitant CV and/or chronic kidney disease. Materials and methods: People with T2D and concomitant CV and/or kidney disease were randomized to receive LINA 5 mg, or PBO once daily (1:1), on top of standard of care. All hHF, CV outcomes, and deaths were centrally adjudicated, with individual and composite HF-related outcomes analyses comparing LINA vs. placebo. Investigator-reported HF-related adverse events, whether or not confirmed by adjudication, were also analyzed. A Cox proportional hazards model adjusting for region and history of HF was used for analyses of first events. Recurrent hHF events were analyzed using a negative binomial model.
Methods: The present Cardiovascular and Renal Outcomes Trial randomized people with T2D and i) concomitant CV disease with UACR >30 mg/g or ii) prevalent CKD (i.e. GFR <45 ml/min/1.73m2 and/or UACR >200 mg/g) to receive the DPP-4 inhibitor linagliptin (5 mg) or placebo once daily in a double-blind fashion. The primary CV endpoint was 3P-MACE, with a key secondary kidney endpoint (adjudicated ESKD, renal death, or sustained ≥40% decrease in eGFR from baseline) and other renal outcomes (including albuminuria and eGFR slope) also assessed. Subgroups were assessed by baseline kidney function (eGFR ≥/<45 ml/min/1.73m2and eGFR ≥/<30, 45 or 60 ml/min/1.73m2).
Adults with type 2 diabetes, HbA1c 6.5-10.0% inclusive, and high CV risk were eligible for inclusion. […] Macrovascular disease eligibility criteria was based on documented and confirmed history of myocardial infarction, coronary artery disease, stroke, carotid artery disease, or peripheral artery disease. Participants with end-stage kidney disease (ESKD), defined as eGFR <15 or requiring maintenance dialysis, were excluded.

[1] = Metformin-dose: Not on metformin
[2] = Prevalent kidney disease (eGFR<60 mL/min/1.73 m^2 or macroalbuminuria UACR >300 mg/g) No
[3] = Prevalent kidney disease (eGFR<60 mL/min/1.73 m^2 or macroalbuminuria UACR >300 mg/g) Yes
[4] = Prevalent kidney disease (eGFR<60 or UACR >300 mg/g) No
[5] = Prevalent kidney disease (eGFR<60 or UACR >300 mg/g) Yes

CC#CCn1c(N2CCC[C@@H](N)C2)nc2c1c(=O)n(Cc1nc(C)c3ccccc3n1)c(=O)n2C [Linagliptin, 1-[(4-methyl-quinazolin-2-yl)methyl]-3-methyl-7-(2-butyn-1-yl)-8-(3-(R)-amino-piperidin-1-yl)-xanthine]
Hazard ratio for hospitalised heart failure (History of heart failure Yes): 0.88 | 3-point MACE: hazard ratio vs placebo (Insulin No): 0.88 | 3-point MACE: patients with event/patients analyzed (Insulin No): 139/1487 | Key secondary kidney outcome: hazard ratio vs placebo (Insulin No): 1.08 | Key secondary kidney outcome: patients with event/patients analyzed (Insulin No): 101/1487 | Patients with event/patients analysed, hospitalised heart failure (Insulin No): 40/1487 | Hazard ratio for hospitalised heart failure (Insulin No): 0.62 | 3-point MACE: hazard ratio vs placebo (Insulin Yes): 1.10 | 3-point MACE: patients with event/patients analyzed (Insulin Yes): 295/2007 | Key secondary kidney outcome: hazard ratio vs placebo (Insulin Yes): 1.01 | Key secondary kidney outcome: patients with event/patients analyzed (Insulin Yes): 226/2007 | Patients with event/patients analysed, hospitalised heart failure (Insulin Yes): 169/2007 | Hazard ratio for hospitalised heart failure (Insulin Yes): 1.00 | Patients with event/patients analysed, hospitalised heart failure (Ischemic heart disease No): 66/1465 | Hazard ratio for hospitalised heart failure (Ischemic heart disease No): 1.04 | Patients with event/patients analysed, hospitalised heart failure (Ischemic heart disease Yes): 143/2029 | Hazard ratio for hospitalised heart failure (Ischemic heart disease Yes): 0.85 | 3-point MACE: hazard ratio vs placebo (Lipid lowering drugs No): 0.90 | 3-point MACE: patients with event/patients analyzed (Lipid lowering drugs No): 95/871 | Key secondary kidney outcome: hazard ratio vs placebo (Lipid lowering drugs No): 1.13 | Key secondary kidney outcome: patients with event/patients analyzed (Lipid lowering drugs No): 101/871 | Patients with event/patients analysed, hospitalised heart failure (Lipid lowering drugs No): 34/871 | Hazard ratio for hospitalised heart failure (Lipid lowering drugs No): 1.01 | 3-point MACE: hazard ratio vs placebo (Lipid lowering drugs Yes): 1.06 | 3-point MACE: patients with event/patients analyzed (Lipid lowering drugs Yes): 339/2623 | Key secondary kidney outcome: hazard ratio vs placebo (Lipid lowering drugs Yes): 1.00 | Key secondary kidney outcome: patients with event/patients analyzed (Lipid lowering drugs Yes): 226/2623 | Patients with event/patients analysed, hospitalised heart failure (Lipid lowering drugs Yes): 175/2623 | Hazard ratio for hospitalised heart failure (Lipid lowering drugs Yes): 0.88 | Patients with event/patients analysed, hospitalised heart failure (Loop diuretics No): 80/2530 | Hazard ratio for hospitalised heart failure (Loop diuretics No): 0.97 | Patients with event/patients analysed, hospitalised heart failure (Loop diuretics Yes): 129/964 | Hazard ratio for hospitalised heart failure (Loop diuretics Yes): 0.90 | 3-point MACE: hazard ratio vs placebo (Metformin No): 1.02 | 3-point MACE: patients with event/patients analyzed (Metformin No): 242/1613 | Key secondary kidney outcome: hazard ratio vs placebo (Metformin No): 0.99 | Key secondary kidney outcome: patients with event/patients analyzed (Metformin No): 212/1613 | Patients with event/patients analysed, hospitalised heart failure (Metformin No): 138/1613 | Hazard ratio for hospitalised heart failure (Metformin No): 0.97 | 3-point MACE: hazard ratio vs placebo (Metformin Yes): 1.02 | 3-point MACE: patients with event/patients analyzed (Metformin Yes): 192/1881 | Key secondary kidney outcome: hazard ratio vs placebo (Metformin Yes): 1.11 | Key secondary kidney outcome: patients with event/patients analyzed (Metformin Yes): 115/1881 | Patients with event/patients analysed, hospitalised heart failure (Metformin Yes): 71/1881 | Hazard ratio for hospitalised heart failure (Metformin Yes): 0.79 | 3-point MACE: hazard ratio vs placebo (Metformin-dose >1500 mg): 1.02 | 3-point MACE: patients with event/patients analyzed (Metformin-dose >1500 mg): 111/1094 | Key secondary kidney outcome: hazard ratio vs placebo (Metformin-dose >1500 mg): 0.99 | Key secondary kidney outcome: patients with event/patients analyzed (Metformin-dose >1500 mg): 62/1094 | Patients with event/patients analysed, hospitalised heart failure (Metformin-dose >1500 mg): 49/1094 | Hazard ratio for hospitalised heart failure (Metformin-dose >1500 mg): 0.88 | 3-point MACE: hazard ratio vs placebo (Metformin-dose ≤1500 mg): 1.02 | 3-point MACE: patients with event/patients analyzed (Metformin-dose ≤1500 mg): 81/787 | Key secondary kidney outcome: hazard ratio vs placebo (Metformin-dose ≤1500 mg): 1.29 | Key secondary kidney outcome: patients with event/patients analyzed (Metformin-dose ≤1500 mg): 53/787 | Patients with event/patients analysed, hospitalised heart failure (Metformin-dose ≤1500 mg): 22/787 | Hazard ratio for hospitalised heart failure (Metformin-dose ≤1500 mg): 0.65 | 3-point MACE: hazard ratio vs placebo [1]: 1.02 | 3-point MACE: patients with event/patients analyzed [1]: 242/1613 | Key secondary kidney outcome: hazard ratio vs placebo [1]: 0.99 | Key secondary kidney outcome: patients with event/patients analyzed [1]: 212/1613 | Patients with event/patients analysed, hospitalised heart failure [1]: 138/1613 | Hazard ratio for hospitalised heart failure [1]: 0.97 | Patients with event/patients analysed, hospitalised heart failure [2]: 18/887 | Hazard ratio for hospitalised heart failure [2]: 0.69 | Patients with event/patients analysed, hospitalised heart failure [3]: 191/2606 | Hazard ratio for hospitalised heart failure [3]: 0.91 | 3-point MACE: hazard ratio vs placebo [4]: 0.88 | 3-point MACE: patients with event/patients analyzed [4]: 60/887 | Key secondary kidney outcome: hazard ratio vs placebo [4]: 1.36 | Key secondary kidney outcome: patients with event/patients analyzed [4]: 19/887 | 3-point MACE: hazard ratio vs placebo [5]: 1.04 | 3-point MACE: patients with event/patients analyzed [5]: 374/2606 | Key secondary kidney outcome: hazard ratio vs placebo [5]: 0.99 | Key secondary kidney outcome: patients with event/patients analyzed [5]: 308/2606 | 3-point MACE: hazard ratio vs placebo (Race Asian): 1.09 | 3-point MACE: patients with event/patients analyzed (Race Asian): 40/307 | Key secondary kidney outcome: hazard ratio vs placebo (Race Asian): 0.90 | Key secondary kidney outcome: patients with event/patients analyzed (Race Asian): 32/307 | Patients with event/patients analysed, hospitalised heart failure (Race Asian): 14/307 | 3-point MACE: hazard ratio vs placebo (Race Black/African-American): 1.30 | 3-point MACE: patients with event/patients analyzed (Race Black/African-American): 31/194 | Key secondary kidney outcome: hazard ratio vs placebo (Race Black/African-American): 1.31 | Key secondary kidney outcome: patients with event/patients analyzed (Race Black/African-American): 35/194 | Patients with event/patients analysed, hospitalised heart failure (Race Black/African-American): 15/194
